Measured values published in publication PMC7256108 (Cellular and Molecular Life Sciences: CMLS, 2019).
Where two headings read alike, the source gives them in different places.

What was measured:
[1] = target: T1, OR1A1 wt (Homo sapiens, UniProt Q9P1Q5); test: cAMP-luminescence GloSensor assay, recombinant OR1A1 wt; type: cell-based; details: OR1A1 wt
T1 construct: 39aa rho-tag; expressed in transfected cells; host or cells: NxG 108CC15 or HEK-293 cells
T1 sequence (Q9P1Q5 1-309): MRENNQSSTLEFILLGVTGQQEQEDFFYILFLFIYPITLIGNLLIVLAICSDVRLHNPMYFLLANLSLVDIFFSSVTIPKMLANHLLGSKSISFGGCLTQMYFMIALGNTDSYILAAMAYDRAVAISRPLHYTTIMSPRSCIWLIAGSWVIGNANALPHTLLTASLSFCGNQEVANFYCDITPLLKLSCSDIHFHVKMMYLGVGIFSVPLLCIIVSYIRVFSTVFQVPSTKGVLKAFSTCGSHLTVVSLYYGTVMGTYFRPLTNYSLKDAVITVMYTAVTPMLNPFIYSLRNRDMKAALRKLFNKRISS
Protocol: (§1) The assay was performed as reported above.
(§2) All data are presented as mean ± SD.

[2] = target: T2, OR2M3 wt (Homo sapiens, UniProt Q8NG83); test: cAMP-luminescence GloSensor assay, recombinant OR2M3 wt; type: cell-based; details: no odorant
T2 construct: full-length gene-specific forward and reverse primers were added; 39aa rho-tag; expressed in transfected cells; host or cells: NxG 108CC15 or HEK-293 cells
T2 sequence (Q8NG83 1-312): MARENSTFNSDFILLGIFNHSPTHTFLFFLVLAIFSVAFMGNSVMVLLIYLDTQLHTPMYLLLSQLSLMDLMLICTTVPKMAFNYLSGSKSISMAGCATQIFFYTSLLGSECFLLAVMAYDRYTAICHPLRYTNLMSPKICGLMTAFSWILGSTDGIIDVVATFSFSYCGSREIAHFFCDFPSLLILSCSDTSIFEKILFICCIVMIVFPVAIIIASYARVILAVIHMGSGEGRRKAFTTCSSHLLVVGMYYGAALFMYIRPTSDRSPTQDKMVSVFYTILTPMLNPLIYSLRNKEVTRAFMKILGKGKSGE
Protocol: as §1, §2

Row | EC50 ([1]; 10 µmol/L Cu^2+, read-out: EC50 in the presence of Cu^2+) [µM] | EC50 ([1]; read-out: EC50 in the absence of Cu^2+) [µM] | odorant-independent constitutive activity of OR2M3 ([2]; Cu^2+ supplementation > 10 µmol/L) | basal activity of OR2M3 ([2]; Cu^2+ supplementation of 10 µmol/L) | SMILES
1 | 159 ± 43.1 | 126 ± 34.1 | – | – | C=C(C)[C@@H]1CC=C(C)C(=O)C1 [(R)-(-)-Carvone, (R)-(-)-carvone]
2 | – | – | decreased | did not inhibit | [Cl][Cu][Cl] [Cu^2+, copper(II) chloride]
